We go through 18 compounds from ChEMBL document CHEMBL2169845 (J Med Chem, 2012).

Test [1] is described as follows: Inhibition of c-terminally truncated N-terminal 8xHis-tagged human Bcl-xL deletion mutant expressed in Escherichia coli BL21 (DE3) after 2 hrs by fluorescence polarization assay. A general note: Fluorescence polarisation rises when a labelled molecule tumbles more slowly, as on binding a larger partner.
Test [2] concerns the target T1, Apoptosis regulator Bcl-2 (Homo sapiens, UniProt P10415).
Test [3] addresses T1, Apoptosis regulator Bcl-2. Put plainly: Inhibition of N-terminal 6xHis-tagged human Bcl-2 expressed in Escherichia coli BL21 (DE3) after 2 hrs by fluorescence polarization assay.

Usually IC50 stands for the concentration that inhibits the measured activity by half. A lower IC50 goes with higher potency. A word on the Ki: it is the equilibrium dissociation constant of an inhibitor or competing ligand from its target. A high value points to a looser hold on the target.

T1 sequence (P10415 whole entry): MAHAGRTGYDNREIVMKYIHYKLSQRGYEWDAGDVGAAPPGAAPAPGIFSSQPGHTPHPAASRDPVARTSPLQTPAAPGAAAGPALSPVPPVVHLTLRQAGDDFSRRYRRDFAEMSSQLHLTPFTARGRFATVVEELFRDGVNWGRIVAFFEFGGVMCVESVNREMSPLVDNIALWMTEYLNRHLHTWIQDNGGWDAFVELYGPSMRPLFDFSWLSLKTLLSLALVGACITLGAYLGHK

Consider `CCS(=O)(=O)c1cccc(S(=O)(=O)Nc2ccc(N3CCN(c4cccc(-c5c(C(=O)NCCCN6CCN(C)CC6)c(C)n(C)c5-c5ccc(Cl)cc5)c4)CC3)cc2)c1`, for which the midpoint of inhibition in test [1], the IC50, lay at 954 nM. For `Cc1c(C(=O)NCCCN2CCN(C)CC2)c(-c2cccc(N3CCN(c4ccc(NS(=O)(=O)c5cccc(OC(C)C)c5)cc4)CC3)c2)c(-c2ccc(Cl)cc2)n1C`, the IC50 in test [1] turned out to be 1050 nM. In test [1], `Cc1c(C(=O)NCCCN2CCN(C)CC2)c(-c2cccc(N3CCN(c4ccc(NS(=O)(=O)c5cccc(Cl)c5)cc4)CC3)c2)c(-c2ccc(Cl)cc2)n1C` yielded an IC50 of 1060 nM.

On to `CCOc1cccc(S(=O)(=O)Nc2ccc(N3CCN(c4cccc(-c5c(C(=O)NCCCN6CCN(C)CC6)c(C)n(C)c5-c5ccc(Cl)cc5)c4)CC3)cc2)c1`, for which, in test [1], 3650 nM corresponded to half-maximal inhibition (IC50). Consider `Cc1c(C(=O)O)c(-c2cccc(N3CCN(c4ccc(NS(=O)(=O)c5ccc(N[C@H](CCN(C)C)CSc6ccccc6)c(S(=O)(=O)C(F)(F)F)c5)cc4)CC3)c2)c(-c2ccc(Cl)cc2)n1C`, for which affinity in test [2] was put at a Ki of 2.1 nM. The half-inhibitory concentration (IC50) in test [3] is 9.2 nM; in test [1] it was 5.1 nM. The compound `CCc1cccc(S(=O)(=O)Nc2ccc(N3CCN(c4cccc(-c5c(C(=O)NCCCN6CCN(C)CC6)c(C)n(C)c5-c5ccc(Cl)cc5)c4)CC3)cc2)c1` yielded an IC50 in test [1] of 1950 nM.

In turn, `Cc1c(C(=O)NCCCN2CCN(C)CC2)c(-c2cccc(N3CCN(c4ccc(NS(=O)(=O)c5cccc(OC(F)(F)F)c5)cc4)CC3)c2)c(-c2ccc(Cl)cc2)n1C` displayed an IC50 in test [1] of 1650 nM. The same measure, in the same setting: the value for `Cc1c(C(=O)NCCCN2CCN(C)CC2)c(-c2cccc(N3CCN(c4ccc(NS(=O)(=O)c5cccc(S(=O)(=O)C6CC6)c5)cc4)CC3)c2)c(-c2ccc(Cl)cc2)n1C` was 1040 nM; that for `Cc1c(C(=O)NCCCN2CCN(C)CC2)c(-c2cccc(N3CCN(c4ccc(NS(=O)(=O)c5cccc(Br)c5)cc4)CC3)c2)c(-c2ccc(Cl)cc2)n1C` was 499 nM. Consider `Cc1c(C(=O)NCCCN2CCN(C)CC2)c(-c2cccc(N3CCN(c4ccc(NS(=O)(=O)c5ccccc5)cc4)CC3)c2)c(-c2ccc(Cl)cc2)n1C`, for which the IC50 in test [1] is 3730 nM.

`Cc1cccc(S(=O)(=O)Nc2ccc(N3CCN(c4cccc(-c5c(C(=O)NCCCN6CCN(C)CC6)c(C)n(C)c5-c5ccc(Cl)cc5)c4)CC3)cc2)c1` showed an IC50 in test [1] of 1990 nM. On to `Cc1c(C(=O)NCCCN2CCN(C)CC2)c(-c2cccc(N3CCN(c4ccc(NS(=O)(=O)c5cccc([N+](=O)[O-])c5)cc4)CC3)c2)c(-c2ccc(Cl)cc2)n1C`, for which half-maximal inhibition in test [1] (IC50) required 131 nM. In test [1], `COc1cccc(S(=O)(=O)Nc2ccc(N3CCN(c4cccc(-c5c(C(=O)NCCCN6CCN(C)CC6)c(C)n(C)c5-c5ccc(Cl)cc5)c4)CC3)cc2)c1` had an IC50 of 2160 nM. In turn, `Cc1c(C(=O)NCCCN2CCN(C)CC2)c(-c2cccc(N3CCN(c4ccc(NS(=O)(=O)c5cccc(C(C)(C)C)c5)cc4)CC3)c2)c(-c2ccc(Cl)cc2)n1C` had an IC50 in test [1] of 744 nM. In the case of `Cc1c(C(=O)NCCCN2CCN(C)CC2)c(-c2cccc(N3CCN(c4ccc(NS(=O)(=O)c5cccc(F)c5)cc4)CC3)c2)c(-c2ccc(Cl)cc2)n1C`, the IC50 in test [1] stood at 1310 nM. With `Cc1c(C(=O)NCCCN2CCN(C)CC2)c(-c2cccc(N3CCN(c4ccc(NS(=O)(=O)c5cccc(S(C)(=O)=O)c5)cc4)CC3)c2)c(-c2ccc(Cl)cc2)n1C`, in test [1], the IC50 was 1920 nM. In turn, `Cc1c(C(=O)O)c(-c2cccc(N3CCN(c4ccc(NS(=O)(=O)c5ccc(N[C@H](CCN(C)C)CSc6ccccc6)c([N+](=O)[O-])c5)cc4)CC3)c2)c(-c2ccc(Cl)cc2)n1C` displayed an inhibitory constant (Ki) in test [2] of under 1 nM. Take `Cc1c(C(=O)O)c(-c2cccc(N3CCN(c4ccc(NS(=O)(=O)c5ccc(N[C@H](CCN6CCOCC6)CSc6ccccc6)c(S(=O)(=O)C(F)(F)F)c5)cc4)CC3)c2)c(-c2ccc(Cl)cc2)n1C`: the Ki in test [2] is 14.1 nM. Further, the IC50 in test [3] stood at 55.2 nM; in test [1] it was 10.8 nM.
